Key:
[1] = test system: glycolysis in red blood cells; assay: YSI glucose recovery of red blood cells treated with glyceraldehyde, washed and recombined with plasma and glucose; assay type: cell-based; conditions: RBCs treated with 20, 35 and 50 mM for 72 hours at 2-10 C; after 34 days (FIG. 6)
Experimental: FIG. 6 illustrates the YSI 2300 (reference analyzer) glucose concentration (mg/dL) of blood specimens at various concentrations of D,L glyceraldehyde respectively over 4 weeks at about 2° C. to about 10° C., wherein the control is untreated blood sample. Red blood cells were treated, washed and recombined with plasma and glucose.
RBC Treatment w/ Glyceraldehyde & Subsequent Removal
• 1) Employ fresh whole blood collected in standard anticoagulant (i.e. EDTA, heparin, sodium citrate) from a healthy adult population. Alternative blood sources may include bovine, avian, porcine, equine, goat, or alligator. • 2) Allow sufficient time for the natural enzymatic breakdown of glucose to occur (i.e. glycolysis). Deplete glucose concentration to less than about 20 mg/dl. Preferred storage at 2°-30° C. • 3) Separate RBC cellular component from plasma fraction via gravity settling and or centrifugation. If desired, the removed plasma fraction may be retained for reintroduction. • 4) Wash RBC cellular component with isotonic phosphate buffered saline solution (3×). Exchange diluent via centrifugation is preferred (15 minutes @ 1500 rpm (650×g). • 5) Adjust RBC concentration to approximately 4.0×10^6/mm^3±0.25×10^6/mm^3. […]

[2] = test system: glycolysis in whole blood; assay: YSI glucose concentration over time in whole blood specimens with D,L glyceraldehyde added; assay type: cell-based
Experimental: FIG. 4 illustrates the YSI glucose concentration (mg/dL) of blood specimens containing EDTA at various final concentrations of a mixture of D,L glyceraldehydes at 0.0, 1.0, 5.0, 10.0 and 20.0 mM, obtained over 4 weeks of real time testing at about 2° C. to about 10° C.;
FIG. 5 illustrates the YSI 2300 (reference analyzer) glucose concentration (mg/dL) of blood specimens treated at various concentrations of D,L glyceraldehyde over 3 weeks at about 2° C. to about 10° C., wherein the control is an untreated blood sample;
In one method, a sample containing a cellular component, (i.e. RBCs, WBCs) is collected into a microfuge or vacuum tube, e.g. […]®, (such as supplied by Becton, Dickinson and Company, Franklin Lakes, N.J.). The initial concentration of glucose in the sample can be 50 […].
The vacuum tube may contain any appropriate anticoagulant agent known to one of ordinary skill, including oxalate, EDTA, citrate, heparin or combination thereof, to form a suspension. If used, the anticoagulant may be added together simultaneously, or sequentially, to the sample.
The resulting suspension is incubated at about 2° C. to about 30° C. and allowed to undergo glycolysis until the glucose level is less than about 20 mg/dL. […]

[3] = test system: glycolysis in whole blood; conditions: final concentration about 0.9 to 20 mM in blood sample; testing within 16 hours; cited from earlier work

Question: For `O=CC(O)CO` (racemic) [D,L glyceraldehyde, 2,3-dihydroxypropanal], which “loss in glucose recovery” value [1] is on record?
Answer: Its value is under 5%.

Question: And the “YSI glucose concentration loss” value ([2]; 20.0 mM D,L glyceraldehyde in EDTA, at 4 weeks, about 2-10 C (FIG. 4))?
Answer: Its value is “less than 10%”.

Question: And the “YSI glucose concentration loss” value ([2]; 30.0 mM D,L glyceraldehyde in EDTA, glucose burned down then added back, at 3 weeks, about 2-10 C (FIG. 5))?
Answer: Its value is “less than 3.5%”.

Question: For `O=CC(O)CO` (stereo not shown) [glyceraldehyde, 2,3-dihydroxypropanal], which glucose loss [3] is on record?
Answer: The glucose loss was “negligible glucose loss”.

Reference: patent US20060211072A1, “Process, composition and kit for providing a stable whole blood calibrator/control” (Streck, Inc., priority 2005, published 2006)
